According to publication PMC5218480 (PLoS ONE, 2017):

System: MV-4-11 cells
Assay: Gene expression microarray analysis (Affymetrix PrimeView) and GSEA
Assay type: cell-based, human
Set-up: RFU PODN (11730768_x_at) / Fold change /veh PODN (11730768_x_at) / RFU LINC00158 (11744669_a_at) / Fold change /veh LINC00158 (11744669_a_at) / RFU DUSP10 (11751237_a_at) / Fold change /veh DUSP10 (11751237_a_at) / RFU ID3 (11757404_x_at) / Fold change /veh ID3 (11757404_x_at) / RFU PLEKHG5 (11737974_s_at) / Fold change /veh PLEKHG5 (11737974_s_at) / RFU LRRC4B (11730491_at) / Fold change /veh LRRC4B (11730491_at) / RFU GIMAP4 (11747438_a_at) / Fold change /veh GIMAP4 (11747438_a_at) / RFU KRT8 (11758183_x_at) / Fold change /veh KRT8 (11758183_x_at) / RFU CNN1 (11734310_a_at) / Fold change /veh CNN1 (11734310_a_at) / RFU VPS37D (11726825_at) / Fold change /veh VPS37D (11726825_at) / RFU C10orf10 (11716522_x_at) / Fold change /veh C10orf10 (11716522_x_at) / RFU KIR2DL2 /// KIR2DL4 /// KIR2DL5A /// KIR2DL5B /// KIR2DS1 /// KIR2DS2 /// KIR2DS3 /// KIR2DS4 /// KIR3DL3 /// KIR3DL3 /// KIR3DS1 (11738374_at) / Fold change /veh KIR2DL2 /// KIR2DL4 /// KIR2DL5A /// KIR2DL5B /// KIR2DS1 /// KIR2DS2 /// KIR2DS3 /// KIR2DS4 /// KIR3DL3 /// KIR3DL3 /// KIR3DS1 (11738374_at) / RFU C1QL1 (11718748_at) / Fold change /veh C1QL1 (11718748_at) / RFU TMPRSS4 (11747572_a_at) / Fold change /veh TMPRSS4 (11747572_a_at) / RFU HAMP (11756126_x_at) / Fold change /veh HAMP (11756126_x_at) / RFU RNFT2 (11725882_a_at) / Fold change /veh RNFT2 (11725882_a_at) / RFU NR4A2 (11747474_a_at) / Fold change /veh NR4A2 (11747474_a_at) / RFU ABCC12 (11746883_a_at) / Fold change /veh ABCC12 (11746883_a_at) / RFU TMEM136 (11760407_x_at) / Fold change /veh TMEM136 (11760407_x_at) / RFU CLDN22 /// WWC2 (11732394_at) / Fold change /veh CLDN22 /// WWC2 (11732394_at) / RFU HLA-DPB1 (11760878_x_at) / Fold change /veh HLA-DPB1 (11760878_x_at) / RFU SPINT1 (11716480_a_at) / Fold change /veh SPINT1 (11716480_a_at) / RFU GAP43 (11754022_s_at) / Fold change /veh GAP43 (11754022_s_at) / RFU A4GNT (11735810_at) / Fold change /veh A4GNT (11735810_at) / RFU PRB3 (11715151_x_at) / Fold change /veh PRB3 (11715151_x_at) / RFU TUBB4B (11761932_at) / Fold change /veh TUBB4B (11761932_at) / RFU CAPN14 (11732068_a_at) / Fold change /veh CAPN14 (11732068_a_at) / RFU TMCC2 (11721928_a_at) / Fold change /veh TMCC2 (11721928_a_at) / RFU IRGQ (11745062_a_at) / Fold change /veh IRGQ (11745062_a_at) / RFU FAM174B (11720279_a_at) / Fold change /veh FAM174B (11720279_a_at) / RFU TMPRSS4 (11748680_a_at) / Fold change /veh TMPRSS4 (11748680_a_at) / RFU FAM212B (11763350_a_at) / Fold change /veh FAM212B (11763350_a_at) / RFU PLEKHG5 (11743358_a_at) / Fold change /veh PLEKHG5 (11743358_a_at) / RFU ZSCAN30 (11745921_a_at) / Fold change /veh ZSCAN30 (11745921_a_at) / RFU CMKLR1 (11741424_a_at) / Fold change /veh CMKLR1 (11741424_a_at) / RFU LOC101060620 /// MAPK8IP1 (11723275_at) / Fold change /veh LOC101060620 /// MAPK8IP1 (11723275_at) / RFU SPTSSB (11747773_x_at) / Fold change /veh SPTSSB (11747773_x_at) / RFU PRSS12 (11739890_at) / Fold change /veh PRSS12 (11739890_at) / RFU BIN1 (11741810_x_at) / Fold change /veh BIN1 (11741810_x_at) / RFU WNT11 (11732464_a_at) / Fold change /veh WNT11 (11732464_a_at) / RFU C10orf10 (11716521_a_at) / Fold change /veh C10orf10 (11716521_a_at) / RFU C5orf56 (11738089_at) / Fold change /veh C5orf56 (11738089_at) / RFU CYB561 (11721691_x_at) / Fold change /veh CYB561 (11721691_x_at) / RFU ANKRD19P (11752326_a_at) / Fold change /veh ANKRD19P (11752326_a_at) / RFU OR2T12 /// OR2T33 /// OR2T8 (11738714_s_at) / Fold change /veh OR2T12 /// OR2T33 /// OR2T8 (11738714_s_at) / RFU VCAN (11748164_a_at) / Fold change /veh VCAN (11748164_a_at) / RFU JSRP1 (11732532_at) / Fold change /veh JSRP1 (11732532_at) / RFU KRTAP10-11 (11738290_x_at) / Fold change /veh KRTAP10-11 (11738290_x_at) / RFU MYO3A (11730013_a_at) / Fold change /veh MYO3A (11730013_a_at) / RFU EBF3 (11725865_a_at) / Fold change /veh EBF3 (11725865_a_at) / RFU CAMK2N1 (11719241_x_at) / Fold change /veh CAMK2N1 (11719241_x_at) / RFU C5orf56 (11738088_a_at) / Fold change /veh C5orf56 (11738088_a_at) / RFU OLFML3 (11715873_a_at) / Fold change /veh OLFML3 (11715873_a_at) / RFU LOC100653217 /// NTM (11731650_a_at) / Fold change /veh LOC100653217 /// NTM (11731650_a_at) / RFU MAPK11 (11762145_a_at) / Fold change /veh MAPK11 (11762145_a_at) / RFU FIZ1 (11724087_x_at) / Fold change /veh FIZ1 (11724087_x_at) / RFU OASL (11726364_x_at) / Fold change /veh OASL (11726364_x_at) / RFU SOX15 (11748057_x_at) / Fold change /veh SOX15 (11748057_x_at) / RFU CD79A (11719716_a_at) / Fold change /veh CD79A (11719716_a_at) / RFU HIST1H1D (11736915_at) / Fold change /veh HIST1H1D (11736915_at) / RFU CASKIN2 (11723855_a_at) / Fold change /veh CASKIN2 (11723855_a_at) / RFU LOC730098 (11760151_x_at) / Fold change /veh LOC730098 (11760151_x_at) / RFU OR4N2 (11742367_at) / Fold change /veh OR4N2 (11742367_at) / RFU PRRT2 (11749266_a_at) / Fold change /veh PRRT2 (11749266_a_at) / RFU SNX32 (11753110_a_at) / Fold change /veh SNX32 (11753110_a_at) / RFU CDHR5 (11726645_a_at) / Fold change /veh CDHR5 (11726645_a_at) / RFU RCAN1 (11760418_a_at) / Fold change /veh RCAN1 (11760418_a_at) / RFU FAM167A (11723789_a_at) / Fold change /veh FAM167A (11723789_a_at) / RFU FAM26E (11764081_at) / Fold change /veh FAM26E (11764081_at) / RFU ISYNA1 (11749810_s_at) / Fold change /veh ISYNA1 (11749810_s_at) / RFU ACY1 (11761880_at) / Fold change /veh ACY1 (11761880_at) / RFU 11764098_at / Fold change /veh 11764098_at / RFU SAMD14 (11745864_x_at) / Fold change /veh SAMD14 (11745864_x_at) / RFU NPB (11741838_a_at) / Fold change /veh NPB (11741838_a_at) / RFU TMPRSS6 (11731388_a_at) / Fold change /veh TMPRSS6 (11731388_a_at) / RFU KRTAP10-2 (11738614_at) / Fold change /veh KRTAP10-2 (11738614_at) / RFU ARHGAP8 /// PRR5-ARHGAP8 (11727945_x_at) / Fold change /veh ARHGAP8 /// PRR5-ARHGAP8 (11727945_x_at) / RFU KRTAP5-7 /// NADSYN1 (11734609_at) / Fold change /veh KRTAP5-7 /// NADSYN1 (11734609_at) / RFU RASL12 (11751679_a_at) / Fold change /veh RASL12 (11751679_a_at) / RFU CDKN2B (11736163_a_at) / Fold change /veh CDKN2B (11736163_a_at) / RFU PRF1 (11729649_at) / Fold change /veh PRF1 (11729649_at) / RFU, ZNF638 /// ZNF638-IT1 / Fold change vs veh, ZNF638 /// ZNF638-IT1 / RFU, PANK3 / Fold change vs veh, PANK3 / RFU, SH3YL1 / Fold change vs veh, SH3YL1 / RFU, ZEB2 / Fold change vs veh, ZEB2 / RFU, NRIP1 / Fold change vs veh, NRIP1 / RFU, PTTG1IP / Fold change vs veh, PTTG1IP / RFU, CAPN2 / Fold change vs veh, CAPN2 / RFU, MED14 / Fold change vs veh, MED14 / RFU, SNORA58 / Fold change vs veh, SNORA58 / RFU, C1orf63 / Fold change vs veh, C1orf63 / RFU, LRRFIP1 / Fold change vs veh, LRRFIP1 / RFU, NDUFAF7 / Fold change vs veh, NDUFAF7 / RFU, SLC12A2 / Fold change vs veh, SLC12A2 / RFU, IBTK / Fold change vs veh, IBTK / RFU, ESF1 / Fold change vs veh, ESF1 / Fold change vs veh, TMEM50B / RFU, TAOK1 / Fold change vs veh, TAOK1 / RFU, ACBD3 / Fold change vs veh, ACBD3 / RFU, TMA16 / Fold change vs veh, TMA16 / RFU, RWDD3 / Fold change vs veh, RWDD3 / RFU, BCAT1 / Fold change vs veh, BCAT1 / RFU, EDEM3 / Fold change vs veh, EDEM3 / RFU, TMEM33 / Fold change vs veh, TMEM33 / RFU, WDR75 / Fold change vs veh, WDR75 / RFU, AHCTF1 / Fold change vs veh, AHCTF1 / RFU, TFRC / Fold change vs veh, TFRC / RFU, ZDHHC17 / Fold change vs veh, ZDHHC17 / RFU, NOM1 / Fold change vs veh, NOM1 / RFU, ARL8B / Fold change vs veh, ARL8B / RFU, ZBTB11 / Fold change vs veh, ZBTB11 / RFU, TAMM41 / Fold change vs veh, TAMM41 / RFU, KIAA1704 /// LOC100996395 / Fold change vs veh, KIAA1704 /// LOC100996395 / RFU, ING1 / Fold change vs veh, ING1 / RFU, TRMT61B / Fold change vs veh, TRMT61B / RFU, FUBP3 / Fold change vs veh, FUBP3 / RFU, TP53 / Fold change vs veh, TP53 / RFU, TNKS2 / Fold change vs veh, TNKS2 / RFU, ZFP14 / Fold change vs veh, ZFP14 / RFU, ACTR2 / Fold change vs veh, ACTR2 / RFU, PPP3R1 / Fold change vs veh, PPP3R1 / RFU, PIK3R1 / Fold change vs veh, PIK3R1 / RFU, HNRNPA1 / Fold change vs veh, HNRNPA1 / RFU, RNF170 / Fold change vs veh, RNF170 / RFU, ZNF28 / Fold change vs veh, ZNF28 / RFU, RNGTT / Fold change vs veh, RNGTT / RFU, OGT / Fold change vs veh, OGT / RFU, BRD1 / Fold change vs veh, BRD1 / RFU, MARS / Fold change vs veh, MARS / RFU, ZNF655 / Fold change vs veh, ZNF655 / RFU, FAHD1 / Fold change vs veh, FAHD1 / RFU, BDP1 / Fold change vs veh, BDP1 / RFU, LRRCC1 / Fold change vs veh, LRRCC1 / RFU, ARID1A / Fold change vs veh, ARID1A / RFU, ZNF146 / Fold change vs veh, ZNF146 / RFU, ZNF330 / Fold change vs veh, ZNF330 / RFU, GPN3 / Fold change vs veh, GPN3 / RFU, C9orf123 / Fold change vs veh, C9orf123 / RFU, N4BP2L2 / Fold change vs veh, N4BP2L2 / RFU, ARFIP1 / Fold change vs veh, ARFIP1 / RFU, FAM179B / Fold change vs veh, FAM179B / RFU, BCL10 / Fold change vs veh, BCL10 / RFU, UHRF1BP1L / Fold change vs veh, UHRF1BP1L / RFU, BET1 / Fold change vs veh, BET1 / RFU, CNOT2 / Fold change vs veh, CNOT2 / RFU, ZNF268 / Fold change vs veh, ZNF268 / Fold change vs veh, ZNF507 / RFU, DGCR2 / Fold change vs veh, DGCR2 / RFU, WDSUB1 / Fold change vs veh, WDSUB1 / Fold change vs veh, HSP90B1 /// MIR3652 / RFU, ADSS / Fold change vs veh, ADSS / RFU, GK / Fold change vs veh, GK / RFU, ZNF148 / Fold change vs veh, ZNF148 / RFU, TAF9 / Fold change vs veh, TAF9 / RFU, SLC1A5 / Fold change vs veh, SLC1A5 / RFU, SLMO2 / Fold change vs veh, SLMO2 / RFU, ABCC4 / Fold change vs veh, ABCC4 / RFU, LOC101060439 /// RAP1B / Fold change vs veh, LOC101060439 /// RAP1B / RFU, RFX7 / Fold change vs veh, RFX7 / RFU, GTPBP10 / Fold change vs veh, GTPBP10 / RFU, CNEP1R1 / Fold change vs veh, CNEP1R1 / RFU, BIVM-ERCC5 /// ERCC5 / Fold change vs veh, BIVM-ERCC5 /// ERCC5 / RFU, ILF3 / Fold change vs veh, ILF3 / RFU 11762660_at / Fold change /veh 11762660_at / RFU VCAN (11757783_s_at) / Fold change /veh VCAN (11757783_s_at) / RFU DDX43 (11728927_at) / Fold change /veh DDX43 (11728927_at) / RFU KRT8 (11758188_x_at) / Fold change /veh KRT8 (11758188_x_at) / RFU NKD1 (11759106_at) / Fold change /veh NKD1 (11759106_at) / RFU SRD5A1 (11742802_a_at) / Fold change /veh SRD5A1 (11742802_a_at) / RFU TPSAB1 /// TPSB2 (11721975_s_at) / Fold change /veh TPSAB1 /// TPSB2 (11721975_s_at) / RFU GSTM3 (11746129_a_at) / Fold change /veh GSTM3 (11746129_a_at) / RFU IL23R (11737362_x_at) / Fold change /veh IL23R (11737362_x_at) / RFU TMEM51 (11727254_a_at) / Fold change /veh TMEM51 (11727254_a_at) / RFU PIWIL2 (11732686_x_at) / Fold change /veh PIWIL2 (11732686_x_at) / RFU ORM1 (11744905_x_at) / Fold change /veh ORM1 (11744905_x_at) / RFU CCDC152 (11743942_at) / Fold change /veh CCDC152 (11743942_at) / RFU ECM1 (11717891_a_at) / Fold change /veh ECM1 (11717891_a_at) / RFU IL23R (11748794_a_at) / Fold change /veh IL23R (11748794_a_at) / RFU TNFAIP8L3 (11732012_x_at) / Fold change /veh TNFAIP8L3 (11732012_x_at) / RFU MBOAT4 (11741988_at) / Fold change /veh MBOAT4 (11741988_at) / RFU 11764193_at / Fold change /veh 11764193_at / RFU TMEM53 (11763286_at) / Fold change /veh TMEM53 (11763286_at) / RFU MAGEB2 (11727129_at) / Fold change /veh MAGEB2 (11727129_at) / RFU TMEM200A (11744735_a_at) / Fold change /veh TMEM200A (11744735_a_at) / RFU CCDC152 (11751479_a_at) / Fold change /veh CCDC152 (11751479_a_at) / RFU FAM211A (11726209_a_at) / Fold change /veh FAM211A (11726209_a_at) / RFU RGS16 (11746705_a_at) / Fold change /veh RGS16 (11746705_a_at) / RFU VCAN (11755009_s_at) / Fold change /veh VCAN (11755009_s_at) / RFU RHOB (11743442_s_at) / Fold change /veh RHOB (11743442_s_at) / RFU RGS16 (11720943_a_at) / Fold change /veh RGS16 (11720943_a_at) / RFU RGS16 (11720944_at) / Fold change /veh RGS16 (11720944_at) / RFU, VPS4B / Fold change vs veh, VPS4B / RFU, CREB1 / Fold change vs veh, CREB1 / RFU, DNAJC13 / Fold change vs veh, DNAJC13 / RFU, GNAQ / Fold change vs veh, GNAQ / RFU, CDK5R1 / Fold change vs veh, CDK5R1 / RFU, ZRANB3 / Fold change vs veh, ZRANB3 / RFU, CUL4A / Fold change vs veh, CUL4A / RFU, CCNY / Fold change vs veh, CCNY / RFU, UFL1 / Fold change vs veh, UFL1 / RFU, COG3 / Fold change vs veh, COG3 / RFU, DIAPH2 / Fold change vs veh, DIAPH2 / RFU, SKA2 / Fold change vs veh, SKA2 / RFU, AFF3 / Fold change vs veh, AFF3 / RFU, LMF1 / Fold change vs veh, LMF1 / RFU, IPO11 / Fold change vs veh, IPO11 / RFU, DFFB / Fold change vs veh, DFFB / RFU, FOXP1 / Fold change vs veh, FOXP1 / RFU, CARD8 / Fold change vs veh, CARD8 / RFU, STRN3 / Fold change vs veh, STRN3 / RFU, ADK / Fold change vs veh, ADK / RFU, RASSF2 / Fold change vs veh, RASSF2 / RFU, WIPF1 / Fold change vs veh, WIPF1 / RFU, LARP1B / Fold change vs veh, LARP1B / RFU, RASA1 / Fold change vs veh, RASA1 / RFU, RB1 / Fold change vs veh, RB1 / RFU, PPFIA1 / Fold change vs veh, PPFIA1 / RFU, MAT2A / Fold change vs veh, MAT2A / RFU, CCT5 / Fold change vs veh, CCT5 / RFU, WDR92 / Fold change vs veh, WDR92 / RFU, CUX1 / Fold change vs veh, CUX1 / RFU, TTC7A / Fold change vs veh, TTC7A / RFU, TMEM135 / Fold change vs veh, TMEM135 / RFU, DEPTOR / Fold change vs veh, DEPTOR / RFU, CPM / Fold change vs veh, CPM / RFU, DNAJB6 / Fold change vs veh, DNAJB6 / RFU, CACNA2D3 / Fold change vs veh, CACNA2D3 / RFU, DTX4 / Fold change vs veh, DTX4 / RFU, TFCP2 / Fold change vs veh, TFCP2 / RFU, GMCL1 /// GMCL1P1 / Fold change vs veh, GMCL1 /// GMCL1P1 / RFU, AEBP2 / Fold change vs veh, AEBP2 / RFU, SNHG1 /// SNORD22 /// SNORD25 /// SNORD26 /// SNORD27 /// SNORD28 /// SNORD29 /// SNORD31 / Fold change vs veh, SNHG1 /// SNORD22 /// SNORD25 /// SNORD26 /// SNORD27 /// SNORD28 /// SNORD29 /// SNORD31 / Fold change (Aza/veh), C12orf56 (ProbeSet 11735607_a_at) / Fold change (ACY-1035/veh), C12orf56 (ProbeSet 11735607_a_at) / Fold change (Aza/veh), FGFR1OP (ProbeSet 11751329_s_at) / Fold change (ACY-1035/veh), FGFR1OP (ProbeSet 11751329_s_at) / Fold change (Aza/veh), VPS36 (ProbeSet 11739960_a_at) / Fold change (ACY-1035/veh), VPS36 (ProbeSet 11739960_a_at) / RFU SYPL1 (11715823_x_at) / Fold change /veh SYPL1 (11715823_x_at) / RFU IGFBP7 (11715501_s_at) / Fold change /veh IGFBP7 (11715501_s_at) / RFU REEP3 (11722064_at) / Fold change /veh REEP3 (11722064_at) / RFU IGLL1 (11728026_x_at) / Fold change /veh IGLL1 (11728026_x_at): dose or concentration left out as unconfirmed
Settings: MV-4-11 cells, 48 hours

With `Nc1ncn([C@@H]2O[C@H](CO)[C@@H](O)[C@H]2O)c(=O)n1` [azacitidine] the “Fold change /veh TMEM136 (11760407_x_at)” value was 1.19.
